Data reported in patent US12643903B2, “Bifunctional compounds for degradation of EGFR and related methods of use” (BeiGene, Ltd., priority 2020, dated 2026).

How the values were obtained:
[1] = biological target: T1, EGFR (Homo sapiens, UniProt P00533, L858R/T790M); assay: Cell Degradation 1: EGFR degradation in H1975 cells, HTRF assay; format: cell-based; conditions: 16 h treatment, EGFR degradation by HTRF
T1 construct: endogenous in cells; host or cells: H1975
Experimental: After 16 h treatment, add 100 μl 1×lysis buffer to each well; seal the plate and incubate 1 hour at room temperature on a plate shaker; Once the cells are lysed, 16 μL of cell lysate are transferred to a PE 384-well HTRF detection plate; 4 μL of pre-mixed HTRF antibodies are added to each well; Cover the plate with a plate sealer, spin 1000 rpm for 1 min, Incubate overnight at room temperature; Read on BMG PheraStar with HTRF protocol (337 nm-665 nm-620 nm).
(§1) The IC50 (DC50) value of a compound can be obtained by fitting the following equation Y=Bottom+(TOP−Bottom)/(1+((IC50/X)^hillslope))
(§2) Wherein, X and Y are known values, and IC50, Hillslope, Top and Bottom are the parameters obtained by fitting with software. Y is the inhibition percentage (calculated from the equation), X is the concentration of the compound; IC50 is the concentration of the compound when the 50% inhibition is reached. The smaller the IC50 value is, the stronger the inhibitory ability of the compound is. Vice versa, the higher the IC50 value is, the weaker the ability the inhibitory ability of the compound is; Hillslope represents the slope of the fitted curve, generally around 1*; Bottom represents the minimum value of the curve obtained by data fitting, which is generally 0%±20%; Top represents the maximum value of the curve obtained by data fitting, which is generally 100%±20%. The experimental data were fitted by calculating and analyzing with Dotmatics data analysis software.

[2] = biological target: T2, EGFR (Homo sapiens, UniProt P00533, DEL746-750); assay: Cell Degradation 2: EGFR degradation in HCC827 cells, HTRF assay; format: cell-based; conditions: 16 h treatment, EGFR degradation by HTRF
T2 construct: endogenous in cells; host or cells: HCC827
T2 sequence (P00533 with tags, fused parts or gaps DEL746-750): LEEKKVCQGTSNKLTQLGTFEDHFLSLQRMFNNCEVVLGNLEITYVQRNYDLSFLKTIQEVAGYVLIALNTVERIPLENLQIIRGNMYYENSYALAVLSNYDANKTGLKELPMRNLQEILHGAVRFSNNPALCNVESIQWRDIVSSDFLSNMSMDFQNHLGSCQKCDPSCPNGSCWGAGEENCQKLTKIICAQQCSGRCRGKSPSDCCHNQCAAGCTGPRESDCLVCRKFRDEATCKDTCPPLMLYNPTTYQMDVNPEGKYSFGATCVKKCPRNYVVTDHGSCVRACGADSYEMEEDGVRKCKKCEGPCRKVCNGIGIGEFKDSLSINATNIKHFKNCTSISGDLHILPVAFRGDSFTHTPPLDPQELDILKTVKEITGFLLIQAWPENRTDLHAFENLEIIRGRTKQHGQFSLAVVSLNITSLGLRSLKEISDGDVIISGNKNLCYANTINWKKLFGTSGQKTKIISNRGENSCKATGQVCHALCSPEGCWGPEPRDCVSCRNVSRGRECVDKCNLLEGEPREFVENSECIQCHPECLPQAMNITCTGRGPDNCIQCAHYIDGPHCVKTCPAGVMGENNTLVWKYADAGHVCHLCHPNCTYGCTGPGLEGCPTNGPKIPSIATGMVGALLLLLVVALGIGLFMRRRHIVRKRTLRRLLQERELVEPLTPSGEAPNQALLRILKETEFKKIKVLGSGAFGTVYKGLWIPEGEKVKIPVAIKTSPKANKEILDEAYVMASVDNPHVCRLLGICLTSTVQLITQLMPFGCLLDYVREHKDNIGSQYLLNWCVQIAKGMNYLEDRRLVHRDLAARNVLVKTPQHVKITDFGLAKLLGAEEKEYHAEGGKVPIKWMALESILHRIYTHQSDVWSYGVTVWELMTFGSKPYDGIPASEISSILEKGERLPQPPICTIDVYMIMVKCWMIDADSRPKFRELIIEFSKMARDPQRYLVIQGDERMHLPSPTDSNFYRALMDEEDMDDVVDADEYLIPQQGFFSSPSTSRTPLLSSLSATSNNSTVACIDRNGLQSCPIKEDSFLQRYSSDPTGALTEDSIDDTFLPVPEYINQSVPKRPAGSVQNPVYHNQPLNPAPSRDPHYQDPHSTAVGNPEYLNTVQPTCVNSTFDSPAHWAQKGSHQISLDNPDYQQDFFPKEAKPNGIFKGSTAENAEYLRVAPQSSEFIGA
T2 sequence (Q96SW2 whole entry partner): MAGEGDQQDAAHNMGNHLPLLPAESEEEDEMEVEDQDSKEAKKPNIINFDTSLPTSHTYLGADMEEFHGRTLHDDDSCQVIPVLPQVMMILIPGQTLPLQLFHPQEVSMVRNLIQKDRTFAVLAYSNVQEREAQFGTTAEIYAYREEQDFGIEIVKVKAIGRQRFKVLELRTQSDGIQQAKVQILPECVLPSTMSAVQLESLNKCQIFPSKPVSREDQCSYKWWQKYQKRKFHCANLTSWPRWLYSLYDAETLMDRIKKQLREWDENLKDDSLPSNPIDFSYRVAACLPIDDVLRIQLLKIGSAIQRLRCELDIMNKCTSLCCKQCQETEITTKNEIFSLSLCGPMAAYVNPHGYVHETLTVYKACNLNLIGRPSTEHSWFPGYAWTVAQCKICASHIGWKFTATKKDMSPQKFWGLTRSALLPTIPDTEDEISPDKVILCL
Experimental: After 16 h treatment, add 100 μl 1×lysis buffer to each well; seal the plate and incubate 1 hour at room temperature on a plate shaker; Once the cells are lysed, 16 μl diluted (2 μL to 14 μl 1× lysisi buffer) cell lysate are transferred to a PE 384-well HTRF detection plate; 4 μL of pre-mixed HTRF antibodies are added to each well; Cover the plate with a plate sealer, spin 1000 rpm for 1 min, Incubate overnight at room temperature; Read on BMG PheraStar with HTRF protocol (337 nm-665 nm-620 nm).
as §1, §2

T1 sequence (P00533 25-1210 T790M/L858R): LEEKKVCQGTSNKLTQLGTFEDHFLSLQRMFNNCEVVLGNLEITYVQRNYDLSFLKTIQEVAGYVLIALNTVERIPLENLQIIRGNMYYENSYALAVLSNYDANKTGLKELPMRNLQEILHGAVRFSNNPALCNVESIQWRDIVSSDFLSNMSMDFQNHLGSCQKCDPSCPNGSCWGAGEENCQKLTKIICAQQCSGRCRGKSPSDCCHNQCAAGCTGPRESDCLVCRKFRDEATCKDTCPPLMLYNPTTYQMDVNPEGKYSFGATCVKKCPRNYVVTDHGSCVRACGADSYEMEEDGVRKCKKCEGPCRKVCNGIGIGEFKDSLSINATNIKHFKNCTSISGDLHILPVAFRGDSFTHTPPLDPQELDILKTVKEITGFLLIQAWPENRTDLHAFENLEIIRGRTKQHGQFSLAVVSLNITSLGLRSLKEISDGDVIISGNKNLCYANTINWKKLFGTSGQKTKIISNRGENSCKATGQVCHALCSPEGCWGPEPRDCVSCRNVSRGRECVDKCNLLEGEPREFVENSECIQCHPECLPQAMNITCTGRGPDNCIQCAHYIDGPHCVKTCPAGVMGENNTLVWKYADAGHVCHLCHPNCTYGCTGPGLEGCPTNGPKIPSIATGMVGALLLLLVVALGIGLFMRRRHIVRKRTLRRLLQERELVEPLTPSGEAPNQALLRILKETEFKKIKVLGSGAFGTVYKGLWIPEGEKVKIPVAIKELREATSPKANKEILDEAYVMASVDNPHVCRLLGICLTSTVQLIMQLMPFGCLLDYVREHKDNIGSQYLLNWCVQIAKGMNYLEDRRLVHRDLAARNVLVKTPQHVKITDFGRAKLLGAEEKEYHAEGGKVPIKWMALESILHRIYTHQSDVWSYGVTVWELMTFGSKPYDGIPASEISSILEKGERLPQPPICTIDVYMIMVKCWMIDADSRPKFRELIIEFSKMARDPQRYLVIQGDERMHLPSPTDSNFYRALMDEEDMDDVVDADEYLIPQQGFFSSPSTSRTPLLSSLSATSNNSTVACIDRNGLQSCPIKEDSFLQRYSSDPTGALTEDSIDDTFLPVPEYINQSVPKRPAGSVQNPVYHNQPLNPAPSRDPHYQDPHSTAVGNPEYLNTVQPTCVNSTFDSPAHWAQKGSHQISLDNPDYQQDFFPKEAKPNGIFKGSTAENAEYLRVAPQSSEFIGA

| DC50 [1] | DC50 [2] | SMILES |
| --- | --- | --- |
| 33.7 nM | 32.6 nM | CS(=O)(=O)N1CCc2cccc(Nc3nc(Nc4ccc(N5CCC(N6CCN(CC7CCN(c8ccc9c(c8)C(=O)N(C8CCC(=O)NC8=O)C9=O)CC7)CC6)CC5)c(F)c4)nc4[nH]ccc34)c21 (centres unmarked) [Example 16, 2-(2,6-dioxopiperidin-3-yl)-5-(4-((4-(1-(2-fluoro-4-((4-((1-(methylsulfonyl)indolin-7-yl)amino)-7H-pyrrolo[2,3-d]pyrimidin-2-yl)amino)phenyl)piperidin-4-yl)piperazin-1-yl)methyl)piperidin-1-yl)isoindoline-1,3-dione] |
| 36.9 nM | 33.4 nM | COc1cc(CCN2CCN(C3CCN(c4ccc(Nc5nc(Nc6cccc7c6N(S(C)(=O)=O)CC7)c6cc[nH]c6n5)cc4F)CC3)CC2)ccc1C1CCC(=O)NC1=O (centres unmarked) [Example 2, 3-(4-(2-(4-(1-(2-fluoro-4-((4-((1-(methylsulfonyl)indolin-7-yl)amino)-7H-pyrrolo[2,3-d]pyrimidin-2-yl)amino)phenyl)piperidin-4-yl)piperazin-1-yl)ethyl)-2-methoxyphenyl)piperidine-2,6-dione] |
| 9.6 nM | 11.9 nM | CS(=O)(=O)N1CCc2cccc(Nc3nc(Nc4ccc(N5CCC(N6CCN(CCCC7CN(c8ccc9c(c8)C(=O)N(C8CCC(=O)NC8=O)C9=O)C7)CC6)CC5)c5c4OCC5)ncc3Cl)c21 (centres unmarked) [Example 55, 5-(3-(3-(4-(1-(7-((5-chloro-4-((1-(methylsulfonyl)indolin-7-yl)amino)pyrimidin-2-yl)amino)-2,3-dihydrobenzofuran-4-yl)piperidin-4-yl)piperazin-1-yl)propyl)azetidin-1-yl)-2-(2,6-dioxopiperidin-3-yl)isoindoline-1,3-dione] |
| 10.6 nM | 33.6 nM | CS(=O)(=O)N1CCc2cccc(Nc3nc(Nc4ccc(N5CCN(CCC6CCN(c7ccc(C8CCC(=O)NC8=O)cc7)CC6)CC5)c(F)c4)nc4[nH]ccc34)c21 (centres unmarked) [Example 27, 3-(4-(4-(2-(4-(2-fluoro-4-((4-((1-(methylsulfonyl)indolin-7-yl)amino)-7H-pyrrolo[2,3-d]pyrimidin-2-yl)amino)phenyl)piperazin-1-yl)ethyl)piperidin-1-yl)phenyl)piperidine-2,6-dione] |
| 27.1 nM | 92.2 nM | CS(=O)(=O)N1CCc2cccc(Nc3nc(Nc4ccc(N5CCC(N6CCN(C(=O)C7CCN(CC8CCN(c9ccc%10c(c9)C(=O)N(C9CCC(=O)NC9=O)C%10=O)CC8)CC7)CC6)CC5)c(F)c4)nc4[nH]ccc34)c21 (centres unmarked) [Example 14, 2-(2,6-dioxopiperidin-3-yl)-5-(4-((4-(4-(1-(2-fluoro-4-((4-((1-(methylsulfonyl)indolin-7-yl)amino)-7H-pyrrolo[2,3-d]pyrimidin-2-yl)amino)phenyl)piperidin-4-yl)piperazine-1-carbonyl)piperidin-1-yl)methyl)piperidin-1-yl)isoindoline-1,3-dione] |
| 7.5 nM | 36.9 nM | CN(CCCC1CN(c2ccc3c(c2)C(=O)N(C2CCC(=O)NC2=O)C3=O)C1)C1CCN(c2ccc(Nc3ncc(Cl)c(Nc4cccc5c4N(S(C)(=O)=O)CC5)n3)c3c2CCO3)CC1 (centres unmarked) [Example 50, 5-(3-(3-((1-(7-((5-chloro-4-((1-(methylsulfonyl)indolin-7-yl)amino)pyrimidin-2-yl)amino)-2,3-dihydrobenzofuran-4-yl)piperidin-4-yl)(methyl)amino)propyl)azetidin-1-yl)-2-(2,6-dioxopiperidin-3-yl)isoindoline-1,3-dione] |
| 9 nM | 62.6 nM | CS(=O)(=O)N1CCc2cccc(Nc3nc(Nc4ccc(N5CCC(N6CCN(CCOc7cccc(C8CCC(=O)NC8=O)c7)CC6)CC5)c(F)c4)nc4[nH]ccc34)c21 (centres unmarked) [Example 5, 3-(3-(2-(4-(1-(2-fluoro-4-((4-((1-(methylsulfonyl)indolin-7-yl)amino)-7H-pyrrolo[2,3-d]pyrimidin-2-yl)amino)phenyl)piperidin-4-yl)piperazin-1-yl)ethoxy)phenyl)piperidine-2,6-dione] |
| 4.7 nM | > 10000 nM | COc1cc(Nc2nc(Nc3cccc4c3N(S(C)(=O)=O)CC4)c3cc[nH]c3n2)ccc1N1CCC(N2CCN(C(=O)[C@H]3CCN(c4ccc5c(c4)C(=O)N(C4CCC(=O)NC4=O)C5=O)C3)CC2)CC1 (stereo partly drawn) [Example 74, 2-(2,6-dioxopiperidin-3-yl)-5-((S)-3-(4-(1-(2-methoxy-4-((4-((1-(methylsulfonyl)indolin-7-yl)amino)-7H-pyrrolo[2,3-d]pyrimidin-2-yl)amino)phenyl)piperidin-4-yl)piperazine-1-carbonyl)pyrrolidin-1-yl)isoindoline-1,3-dione] |
| 10.5 nM | 8.2 nM | COc1cc(N2CCC(N3CCN(CC4CCN(c5ccc(C6CCC(=O)NC6=O)cc5)CC4)CC3)CC2)c(C)cc1Nc1ncc(Br)c(Nc2cccc3c2N(S(C)(=O)=O)CC3)n1 (centres unmarked) [Example 40, 3-(4-(4-((4-(1-(4-((5-bromo-4-((1-(methylsulfonyl)indolin-7-yl)amino)pyrimidin-2-yl)amino)-5-methoxy-2-methylphenyl)piperidin-4-yl)piperazin-1-yl)methyl)piperidin-1-yl)phenyl)piperidine-2,6-dione] |
| 11.1 nM | 29.3 nM | CS(=O)(=O)N1CCc2cccc(Nc3nc(Nc4ccc(N5CCC(N6CCN(CC[C@H]7CCN(c8ccc(C9CCC(=O)NC9=O)cc8)C7)CC6)CC5)c(F)c4)nc4[nH]ccc34)c21 (stereo partly drawn) [Example 13, 3-(4-((S)-3-(2-(4-(1-(2-fluoro-4-((4-((1-(methylsulfonyl)indolin-7-yl)amino)-7H-pyrrolo[2,3-d]pyrimidin-2-yl)amino)phenyl)piperidin-4-yl)piperazin-1-yl)ethyl)pyrrolidin-1-yl)phenyl)piperidine-2,6-dione] |
| 7.1 nM | 18 nM | CS(=O)(=O)N1CCc2cccc(Nc3nc(Nc4ccc(N5CCC(N6CCN(CCc7ccc(NC8CCC(=O)NC8=O)cc7)CC6)CC5)c(F)c4)nc4[nH]ccc34)c21 (centres unmarked) [Example 66, 3-((4-(2-(4-(1-(2-fluoro-4-((4-((1-(methylsulfonyl)indolin-7-yl)amino)-7H-pyrrolo[2,3-d]pyrimidin-2-yl)amino)phenyl)piperidin-4-yl)piperazin-1-yl)ethyl)phenyl)amino)piperidine-2,6-dione] |
| 19.1 nM | 16.7 nM | CS(=O)(=O)N1CCc2cccc(Nc3nc(Nc4ccc(N5CCC(N6CCN(CCC7CCN(c8ccc(C9CCC(=O)NC9=O)c(F)c8)CC7)CC6)CC5)c(F)c4)nc4[nH]ccc34)c21 (centres unmarked) [Example 9, 3-(2-fluoro-4-(4-(2-(4-(1-(2-fluoro-4-((4-((1-(methylsulfonyl)indolin-7-yl)amino)-7H-pyrrolo[2,3-d]pyrimidin-2-yl)amino)phenyl)piperidin-4-yl)piperazin-1-yl)ethyl)piperidin-1-yl)phenyl)piperidine-2,6-dione] |
| 12.2 nM | 3.4 nM | CS(=O)(=O)N1CCc2cccc(Nc3nc(Nc4ccc(N5CCC(N6CCN(CCC7CCN(c8ccc9c(c8)C(=O)N(C8CCC(=O)NC8=O)C9=O)CC7)CC6)CC5)c(F)c4)ncc3Cl)c21 (centres unmarked) [Example 81, 5-(4-(2-(4-(1-(4-((5-chloro-4-((1-(methylsulfonyl)indolin-7-yl)amino)pyrimidin-2-yl)amino)-2-fluorophenyl)piperidin-4-yl)piperazin-1-yl)ethyl)piperidin-1-yl)-2-(2,6-dioxopiperidin-3-yl)isoindoline-1,3-dione] |
